The results in this text go back to ChEMBL document CHEMBL1201862, “PubChem BioAssay data set” (2004).

Some test systems named below: DLD-1; DMS-114; DMS-273; HCC 2998; HL-60; HOP-18; HT-29; M19-MEL; SF-268; SF-539; SK-MEL-2; SN12C; U-251; UACC-257; XF498; CCRF-CEM; KM12; MCF7; OVCAR-4; SK-MEL-5.
Holding throughout (assay): growth of human tumour cells (NCI), 48 h

Structures are written as SMILES.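 Protocol summary: plate cells (96-well), add compound at 5 concentrations, incubate 48 h, interpolate endpoints linearly. The concentration for 50% growth inhibition is given as GI50.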 The source made the active and inactive calls. Cut-off read from the data, not from the text of the source: active = GI50 up to about 1.1 µM and inactive = higher.

In the case of `CC(C)=CCC/C(C)=C/C=C/C(C)=C/C1C[C@@]2(C(O)O1)[C@H](CCCO)/C(=C(/C)C=O)CC[C@]2(C)O` (stereo partly specified), the GI50 is 16.4 µM (inactive) in the assay on DLD-1; 13.3 µM (inactive) with DMS-114; 1.39 µM (inactive) in the assay with DMS-273; 15 µM (inactive) in the assay with HCC 2998; 11.1 µM (inactive) in the assay with HL-60; 19.1 µM (inactive) in the assay on HOP-18. Moreover, the GI50 is 16.4 µM (inactive) with HT-29; 16.2 µM (inactive) in the assay on M19-MEL; 15.2 µM (inactive) with SF-268; 12.2 µM (inactive) with SF-539; 18.6 µM (inactive) in the assay with SK-MEL-2; 15.6 µM (inactive) with SN12C. For the same molecule, the GI50 with U-251 was > 10 µM (inactive); in the assay with UACC-257 it was 25.4 µM (inactive); in the assay with XF498, 18.3 µM (inactive).
As to `CC1CC[P+](c2ccccc2)(c2ccccc2)c2c1ccc1ccccc21` (stereo unspecified), the GI50 with CCRF-CEM is 3.78 µM (inactive); in the assay with DLD-1, 3.74 µM (inactive); in the assay with DMS-273, 0.405 µM (active); with HCC 2998, 9.48 µM (inactive); in the assay with HL-60, 1.28 µM (inactive); in the assay with HOP-18, 2.52 µM (inactive). In addition, the GI50 with HT-29 is 2.28 µM (inactive); with KM12, 1.59 µM (inactive); in the assay with M19-MEL it was 1.69 µM (inactive); in the assay with MCF7 it was 2.26 µM (inactive); with OVCAR-4, 6.76 µM (inactive); with SF-268, 4.35 µM (inactive). Moreover, the GI50 in the assay on SF-539 was 5.26 µM (inactive); with SK-MEL-2 it was 1.63 µM (inactive); in the assay on SK-MEL-5, 0.83 µM (active); in the assay with SN12C, 2.49 µM (inactive); in the assay on UACC-257, 0.385 µM (active).
For the molecule `O=C1CCC23CC(C=CC=C12)n1c(=O)n(-c2ccccc2)c(=O)n13` (stereo unspecified), the GI50 with CCRF-CEM was 42.4 µM (inactive); in the assay on DLD-1, 66.2 µM (inactive); in the assay on DMS-114, 37.3 µM (inactive); in the assay on DMS-273 it was 71.4 µM (inactive); with HCC 2998, > 100 µM (inactive); in the assay with HL-60 it was 31 µM (inactive). Further, the GI50 in the assay on HOP-18 was > 100 µM (inactive); with HT-29, > 88.9 µM (inactive); in the assay with KM12, > 100 µM (inactive); in the assay with M19-MEL, > 100 µM (inactive); in the assay on MCF7 it was 10.9 µM (inactive); with OVCAR-4 it was > 100 µM (inactive). Also, the GI50 in the assay on SF-268 was > 73.6 µM (inactive); in the assay on SF-539, > 100 µM (inactive); with SK-MEL-2 it was > 100 µM (inactive); in the assay on SK-MEL-5, > 87.3 µM (inactive); in the assay on SN12C it was > 100 µM (inactive); with UACC-257, > 100 µM (inactive). In the assay on XF498, the GI50 is > 100 µM (inactive).
Consider `Cc1ccc(NC(=O)OCC(COc2ccc(Cl)cc2)OC(=O)Nc2ccc(C)cc2)cc1` (stereo unspecified), for which the GI50 was 9.93 µM (inactive) in the assay with CCRF-CEM; 30.5 µM (inactive) in the assay on DLD-1; 17.3 µM (inactive) in the assay with DMS-114; 15.8 µM (inactive) in the assay on DMS-273; 39 µM (inactive) in the assay with HCC 2998; 0.938 µM (active) in the assay with HL-60. The GI50 in the assay with HOP-18 is > 100 µM (inactive); in the assay on HT-29 it was 15.2 µM (inactive); in the assay on KM12 it was 23 µM (inactive); in the assay with M19-MEL it was 22.4 µM (inactive); in the assay with OVCAR-4 it was 13.7 µM (inactive); in the assay with SF-268 it was 22.5 µM (inactive). For the same molecule, the GI50 in the assay with SF-539 was 21.6 µM (inactive); with SK-MEL-2, 15 µM (inactive); in the assay on SK-MEL-5, 24.5 µM (inactive); in the assay on SN12C, 20.4 µM (inactive); in the assay on U-251, 28.4 µM (inactive); with UACC-257, 21.9 µM (inactive). Moreover, the GI50 in the assay on XF498 was 26.4 µM (inactive).
As for `CCCCCCCCCCCCCC(=O)OC1C(O)C(CO)OC(OC)C1NC(=O)N(CCCl)N=O` (stereo unspecified), the GI50 in the assay on DLD-1 was > 100 µM (inactive); with DMS-273, 71.1 µM (inactive); in the assay with HCC 2998 it was > 100 µM (inactive); in the assay with HOP-18, > 100 µM (inactive); in the assay on HT-29, 56.6 µM (inactive); in the assay on KM12, > 100 µM (inactive). The GI50 in the assay on M19-MEL is > 100 µM (inactive); with OVCAR-4, > 100 µM (inactive); in the assay on SF-268, 6.27 µM (inactive); with SF-539, 16.4 µM (inactive); with SK-MEL-2 it was > 100 µM (inactive); in the assay with SK-MEL-5, 45.2 µM (inactive). For the same molecule, the GI50 with SN12C is 37 µM (inactive); in the assay with U-251, 25.6 µM (inactive); in the assay with UACC-257 it was 28.8 µM (inactive); with XF498 it was 48.9 µM (inactive).
Regarding `Cc1cc2c(cc1C)[n+]([O-])c(C#N)c(Cl)[n+]2[O-]`, the GI50 in the assay on CCRF-CEM is 4.92 µM (inactive); with HCC 2998 it was 11 µM (inactive); with HL-60, 7.78 µM (inactive); in the assay with HT-29 it was 4.44 µM (inactive); with MCF7 it was 12.9 µM (inactive); in the assay on OVCAR-4, 13.9 µM (inactive). Further, the GI50 in the assay with SF-268 is 18.1 µM (inactive); with SF-539, 14.3 µM (inactive); with SK-MEL-2, 17.4 µM (inactive); with SK-MEL-5, 11.9 µM (inactive); in the assay with SN12C it was 13.6 µM (inactive); in the assay with U-251, 13.8 µM (inactive). The GI50 in the assay on UACC-257 was 13.8 µM (inactive).
On to `CCCCNC(=O)N/C=C1\C(=O)Oc2ccccc2C1=O`, for which the GI50 with DMS-114 was 28.3 µM (inactive); in the assay with DMS-273 it was 76.6 µM (inactive); with HCC 2998 it was > 100 µM (inactive); in the assay on HL-60 it was 22.1 µM (inactive); with HT-29 it was > 100 µM (inactive); in the assay on M19-MEL, 54.5 µM (inactive). The GI50 in the assay on OVCAR-4 was 57.3 µM (inactive); with SF-268, 34.4 µM (inactive); with SF-539, 39.4 µM (inactive); in the assay on SK-MEL-2 it was 20.1 µM (inactive); in the assay on SK-MEL-5, > 100 µM (inactive); in the assay with SN12C it was 29.5 µM (inactive). Moreover, the figures for the GI50 with UACC-257 and in the assay on XF498 were 55.7 µM (inactive) and 14.1 µM (inactive), respectively.
`c1cncc(O[Si](Oc2cccnc2)(Oc2cccnc2)Oc2cccnc2)c1`: the GI50 with DLD-1, in the assay with DMS-114, with DMS-273, in the assay with HCC 2998, in the assay on HOP-18 and in the assay on HT-29 was > 100 µM (inactive) throughout. The GI50 in the assay on KM12, in the assay with M19-MEL, with OVCAR-4, in the assay on SF-539, with SK-MEL-2 and in the assay on SK-MEL-5 was > 100 µM (inactive) each time. The GI50 with SN12C, in the assay with U-251, with UACC-257 and in the assay with XF498 was > 100 µM (inactive) each time.
For the molecule `C[C@@H]1CC[C@H]2[C@H]1[C@H]1[C@@H](CC[C@]2(C)N=C=S)C1(C)C`, the GI50 is 13.3 µM (inactive) in the assay with CCRF-CEM; 16.1 µM (inactive) in the assay on HCC 2998; 19.1 µM (inactive) in the assay with HL-60; 19.9 µM (inactive) in the assay with HT-29; 17 µM (inactive) with KM12; 17.5 µM (inactive) in the assay on MCF7. Also, the GI50 in the assay on OVCAR-4 was 44.9 µM (inactive); in the assay with SK-MEL-2 it was 22.8 µM (inactive); in the assay on SK-MEL-5, 17.5 µM (inactive); in the assay on SN12C it was 19.6 µM (inactive); in the assay with U-251, 16.7 µM (inactive); with UACC-257 it was 25.8 µM (inactive).
Turning to `N#Cc1ccc(C2Oc3ccc(Cl)cc3C=C2[N+](=O)[O-])cc1` (stereo unspecified), the GI50 in the assay on CCRF-CEM was 0.219 µM (active); in the assay on HCC 2998, 0.979 µM (active); with HL-60, 0.841 µM (active); with HT-29, 2.4 µM (inactive); with KM12, 1.9 µM (inactive); in the assay on MCF7, 1.4 µM (inactive). Also, the GI50 was 1.79 µM (inactive) with OVCAR-4; 1.91 µM (inactive) in the assay with SF-268; 1.87 µM (inactive) with SF-539; 1.74 µM (inactive) in the assay on SK-MEL-2; 1.38 µM (inactive) with SK-MEL-5; 1.31 µM (inactive) in the assay with SN12C. The GI50 in the assay on U-251 is 1.74 µM (inactive); in the assay on UACC-257 it was 2.4 µM (inactive).
With `CCOC(=O)N1C=NC23C(c4ccccc4)C(c4ccccc4)C12C(=O)N(C)C(=O)N3C` (stereo unspecified), the GI50 was > 100 µM (inactive) in the assay on CCRF-CEM; > 100 µM (inactive) with DLD-1; > 100 µM (inactive) in the assay with DMS-273; > 100 µM (inactive) in the assay with HCC 2998; 56.1 µM (inactive) in the assay with HL-60; 1.52 µM (inactive) with HOP-18. For the same molecule, the GI50 with HT-29, with KM12, with M19-MEL, with OVCAR-4, with SF-268 and in the assay on SK-MEL-2 was > 100 µM (inactive) each time. Further, the GI50 in the assay on SK-MEL-5, in the assay with SN12C, in the assay with U-251, in the assay on UACC-257 and in the assay on XF498 was > 100 µM (inactive) throughout.
For `SC1=Nc2ccccc2-c2nc(-c3ccccc3)cc(-c3ccc(Br)cc3)c2C1`, the GI50 in the assay with CCRF-CEM was 1.88 µM (inactive); with HCC 2998, 3.17 µM (inactive); with HL-60, 18.4 µM (inactive); in the assay on HT-29, 2.07 µM (inactive); with KM12, 12 µM (inactive); with MCF7, 4.59 µM (inactive). Besides, the GI50 in the assay with OVCAR-4 is 0.433 µM (active); in the assay on SF-268 it was 2.1 µM (inactive); in the assay on SF-539 it was 3.27 µM (inactive); with SK-MEL-2, 6.47 µM (inactive); in the assay on SK-MEL-5, 8.3 µM (inactive); in the assay on SN12C it was 0.791 µM (active). The GI50 in the assay with U-251 was 0.982 µM (active); with UACC-257, 3.15 µM (inactive).
